In one assay the test system is Hs 683. The experiment in a line: Growth inhibition of apoptosis-sensitive human Hs 683 cells after 72 hrs by MTT assay. Type of assay: functional. The conditions noted are these: Hs 683, 72 h.
A further assay relates to B16-F10. In words: Growth inhibition of apoptosis-resistance mouse B16F10 cells after 72 hrs by MTT assay. Type of assay: functional. The conditions noted are these: B16-F10, 72 h. For orientation: Formazan colour is commonly taken as a measure of viable cells.
Assay [1] has as its system A549. In words: Growth inhibition of apoptosis-resistance human A549 cells after 72 hrs by MTT assay. It counts as functional. The conditions noted are these: A549, 72 h.
Assay [2] relates to SK-MEL-28. In words: Growth inhibition of apoptosis-resistance human SK-MEL-28 cells after 72 hrs by MTT assay. It counts as functional. The conditions noted are these: SK-MEL-28, 72 h.
Assay [3] is described as follows: Growth inhibition of apoptosis-resistance human U373 cells after 72 hrs by MTT assay. The conditions noted are these: U373 MG. It counts as functional, U-373MG ATCC.
Assay [4] deals with SK-MEL-28. In words: Induction of membrane permeabilization in apoptosis-resistance human SK-MEL-28 cells at GI50 after 72 hrs by propidium iodide staining-based flow cytometric analysis. Type of assay: functional, cell-based. (In general: A flow cytometer gives signals particle by particle.)
In assay [5] the test system is SK-MEL-28. The experiment in a line: Cytostatic activity against apoptosis-resistance human SK-MEL-28 cells assessed as cell growth at GI50 after 72 hrs by phase contrast microscopic analysis relative to control. It counts as functional.
For assay [6], the system named is A549. In words: Induction of apoptosis in apoptosis-resistance human A549 cells at GI50 after 72 hrs by phase contrast microscopic analysis. It counts as functional, cell-based.
In assay [7] the test system is SK-MEL-28. The experiment in a line: Induction of apoptosis in apoptosis-resistance human SK-MEL-28 cells at GI50 after 72 hrs by phase contrast microscopic analysis. Type of assay: functional, cell-based.
The subject of assay [8] is A549. In words: Cytostatic activity against apoptosis-resistance human A549 cells assessed as cell growth at GI50 after 72 hrs by phase contrast microscopic analysis relative to control. It counts as functional.
The test system of assay [9] is A549. In words: Induction of membrane permeabilization in apoptosis-resistance human A549 cells at GI50 after 72 hrs by propidium iodide staining-based flow cytometric analysis. Type of assay: functional, cell-based.

For 32 molecules, GI50 and Activity results are on record in ChEMBL document CHEMBL2380251, “Antiproliferative activity of 2,3-disubstituted indoles toward apoptosis-resistant cancers cells” (2013).

The source made the active and inactive calls. The rule behind the calls is not given here.

What is called GI50 is the concentration at which growth is held to half of that of the control.

With `Fc1cccc2c(Oc3ccc(Cl)cc3)c(-c3ccc(Cl)cc3)[nH]c12`, the GI50 with Hs 683 was determined as 7 µM; in the assay on B16-F10, 8 µM; in the assay with A549 [1], 7 µM; with SK-MEL-28 [2], 8 µM; in assay [3], 8 µM.

Turning to `CCOC(=O)C1CCN(C(=S)Sc2c(-c3ccc(Br)cc3)[nH]c3ccc(Cl)cc23)CC1`, the concentration for 50% growth inhibition (GI50) in the assay on Hs 683 came out at 36 µM; in the assay on B16-F10, 21 µM; with A549 [1], 34 µM; in the assay on SK-MEL-28 [2] it was 39 µM; in assay [3], 33 µM.

`Cc1onc(-c2c(F)cccc2Cl)c1C(=O)Nc1c(-c2ccccc2)[nH]c2ccccc12`: the GI50 with Hs 683 was found to be 15 µM; in the assay on B16-F10, 22 µM; in the assay with A549 [1], 9 µM; with SK-MEL-28 [2], 13 µM; in [3] it was 24 µM.

With `Cc1cc(C)n(-c2c(-c3ccccc3)[nH]c3ccccc23)n1`, the GI50 in the assay on Hs 683 was 67 µM; in the assay with B16-F10, over 100 µM; in the assay with A549 [1], 61 µM; in the assay on SK-MEL-28 [2], 84 µM; in assay [3], 84 µM.

`CCOC(=O)c1ccc2[nH]c(-c3ccc(Cl)cc3)c(Oc3ccc(Cl)cc3)c2c1`: the concentration for 50% growth inhibition (GI50) came out at 24 µM with Hs 683; 20 µM with B16-F10; 28 µM in the assay with A549 [1]; 28 µM with SK-MEL-28 [2]; 35 µM in assay [3].

Regarding `Clc1ccc(Sc2c(-c3ccc(Cl)cc3)[nH]c3ccccc23)cc1`, the 50% growth inhibitory concentration (GI50) in the assay on Hs 683 stood at 31 µM; in the assay on B16-F10 it was 28 µM; in the assay with A549 [1], 27 µM; with SK-MEL-28 [2], 34 µM; in assay [3] it was 28 µM. In addition, the outcome in the assay with SK-MEL-28 [4], in the assay with A549 [6], in the assay on SK-MEL-28 [7] and in the assay with A549 [9] was inactive. The Activity in the assay on SK-MEL-28 [5] was 10%; in the assay on A549 [8], 30%.

Regarding `Cc1ccc2[nH]c(-c3ccccc3)c(-n3nc(C)cc3C)c2c1`, the GI50 in the assay with Hs 683 amounted to 29 µM; in the assay on B16-F10, 40 µM; in the assay with A549 [1] it was 26 µM; with SK-MEL-28 [2], 33 µM; in assay [3] it was 10 µM.

As to `Clc1ccc(Oc2c(-c3ccc(Cl)cc3)[nH]c3ccccc23)cc1`, the 50% growth inhibitory concentration (GI50) with Hs 683 was 28 µM; in the assay with B16-F10, 29 µM; in the assay on A549 [1], 25 µM; in the assay on SK-MEL-28 [2], 28 µM; in assay [3] it was 25 µM.

In the case of `CCOC(=O)C1CCN(C(=S)Sc2c(-c3ccc(Br)cc3)n(C)c3ccccc23)CC1`, the GI50 was 85 µM in the assay on Hs 683; 50 µM in the assay on B16-F10; 72 µM with A549 [1]; 78 µM in the assay with SK-MEL-28 [2]; over 100 µM in assay [3].

As to `OC1CCCN(C(=S)Sc2c(-c3ccc(Br)cc3)[nH]c3ccccc23)C1` (stereo unspecified), the GI50 is 24 µM in the assay with Hs 683; 29 µM in the assay on B16-F10; 24 µM in the assay with A549 [1]; 28 µM in the assay on SK-MEL-28 [2]; 32 µM in assay [3].

Consider `Clc1ccc(Oc2c(-c3ccc(Cl)cc3)[nH]c3ccc(Cl)cc23)cc1`, for which the 50% growth inhibitory concentration (GI50) in the assay on Hs 683 is 13 µM; in the assay with B16-F10, 10 µM; with A549 [1], 10 µM; in the assay on SK-MEL-28 [2] it was 19 µM; in [3], 13 µM.

As to `Clc1ccc(Sc2c(-c3ccc(Br)cc3)[nH]c3ccccc23)cc1`, the GI50 in the assay on Hs 683 amounted to 25 µM; with B16-F10, 35 µM; in the assay with A549 [1], 26 µM; in the assay with SK-MEL-28 [2] it was 26 µM; in assay [3], 24 µM.

As to `Cc1cc(C)n(-c2c(-c3cccs3)[nH]c3ccc(Cl)cc23)n1`, the 50% growth inhibitory concentration (GI50) in the assay with Hs 683 is 32 µM; with B16-F10, 36 µM; in the assay on A549 [1], 40 µM; with SK-MEL-28 [2], 35 µM; in assay [3], 32 µM.

Take `Clc1ccc(/N=N/c2c(-c3ccc(Br)cc3)[nH]c3ccccc23)cc1`: the 50% growth inhibitory concentration (GI50) in the assay with Hs 683 was found to be 31 µM; with B16-F10, 33 µM; in the assay with A549 [1], 26 µM; in the assay on SK-MEL-28 [2], 33 µM; in assay [3] it was 33 µM.

For the molecule `Cc1cc(C)n(-c2c(-c3cccs3)[nH]c3ccccc23)n1`, the concentration for 50% growth inhibition (GI50) in the assay with Hs 683 was found to be 58 µM; in the assay on B16-F10, 73 µM; with A549 [1] it was 38 µM; in the assay with SK-MEL-28 [2] it was 80 µM; in assay [3], 90 µM.

Consider `O=C(Nc1c(-c2ccccc2)[nH]c2ccccc12)C12CC3CC(CC(C3)C1)C2`, for which the GI50 worked out at 69 µM in the assay on Hs 683; 44 µM with B16-F10; 38 µM in the assay with A549 [1]; 67 µM in the assay with SK-MEL-28 [2]; 38 µM in assay [3].

As for `CCOC(=O)C1CCN(C(=S)Sc2c(-c3ccc(Br)cc3)[nH]c3ccc(C)cc23)CC1`, the concentration for 50% growth inhibition (GI50) with Hs 683 was 34 µM; in the assay on B16-F10 it was 37 µM; in the assay with A549 [1], 37 µM; in the assay with SK-MEL-28 [2] it was 52 µM; in assay [3] it was 68 µM.

With `CCOC(=O)C1CCN(C(=S)Sc2c(-c3ccc(Br)cc3)[nH]c3ccccc23)CC1`, the 50% growth inhibitory concentration (GI50) with Hs 683 amounted to 36 µM; in the assay on B16-F10, 27 µM; in the assay with A549 [1], 34 µM; in the assay on SK-MEL-28 [2], 36 µM; in assay [3], 35 µM.

Consider `CCN(CC)C(=S)Sc1c(-c2ccc(Br)cc2)[nH]c2ccc(Br)cc12`, for which the GI50 with Hs 683 was determined as 22 µM; with B16-F10 it was 33 µM; in the assay with A549 [1], 22 µM; in the assay with SK-MEL-28 [2], 29 µM; in [3] it was 9 µM.

With `COc1ccc2[nH]c(-c3ccc(Cl)cc3)c(Oc3ccc(Cl)cc3)c2c1`, the GI50 is 54 µM in the assay on Hs 683; 31 µM in the assay with B16-F10; 59 µM in the assay on A549 [1]; 57 µM with SK-MEL-28 [2]; 50 µM in [3].

In the case of `CCN(CC)C(=S)Sc1c(-c2ccccc2)[nH]c2ccc(Br)cc12`, the 50% growth inhibitory concentration (GI50) is 26 µM in the assay with Hs 683; 40 µM with B16-F10; 31 µM in the assay on A549 [1]; 28 µM in the assay with SK-MEL-28 [2]; 36 µM in assay [3].

For the molecule `OC1CCCN(C(=S)Sc2c(-c3ccc(Br)cc3)[nH]c3ccc(Cl)cc23)C1` (stereo unspecified), the concentration for 50% growth inhibition (GI50) stood at 31 µM with Hs 683; 37 µM with B16-F10; 29 µM in the assay with A549 [1]; 34 µM in the assay with SK-MEL-28 [2]; 39 µM in assay [3].

Take `S=C(Sc1c(-c2ccc(Br)cc2)[nH]c2ccccc12)N1CCOCC1`: the GI50 with Hs 683 stood at 32 µM; in the assay with B16-F10, 20 µM; with A549 [1], 31 µM; with SK-MEL-28 [2], 35 µM; in assay [3] it was 43 µM.

Turning to `Cc1ccc2[nH]c(-c3ccc(Cl)cc3)c(-n3nc(C)cc3C)c2c1`, the GI50 came out at 50 µM in the assay on Hs 683; 65 µM with B16-F10; 42 µM in the assay with A549 [1]; 46 µM in the assay on SK-MEL-28 [2]; 43 µM in assay [3].

Turning to `Cc1cc(C)n(-c2c(-c3ccccc3)[nH]c3ccc(F)cc23)n1`, the 50% growth inhibitory concentration (GI50) in the assay on Hs 683 turned out to be 32 µM; in the assay on B16-F10, 39 µM; in the assay with A549 [1], 29 µM; with SK-MEL-28 [2], 31 µM; in [3], 47 µM.

Consider `Clc1ccc(Oc2c(-c3ccc(Cl)cc3)[nH]c3ccc(Br)cc23)cc1`, for which the concentration for 50% growth inhibition (GI50) in the assay with Hs 683 worked out at 26 µM; in the assay with B16-F10, 29 µM; in the assay with A549 [1], 30 µM; in the assay on SK-MEL-28 [2] it was 28 µM; in assay [3] it was 35 µM.

With `Clc1ccc(Sc2c(-c3ccc(Cl)cc3)[nH]c3ccc(Cl)cc23)cc1`, the GI50 was 31 µM in the assay with Hs 683; 28 µM in the assay with B16-F10; 27 µM with A549 [1]; 34 µM with SK-MEL-28 [2]; 28 µM in assay [3].

`Brc1ccc(/N=N/c2c(-c3ccc(Br)cc3)[nH]c3ccccc23)cc1`: the GI50 came to 24 µM in the assay on Hs 683; 26 µM in the assay with B16-F10; 23 µM with A549 [1]; 31 µM with SK-MEL-28 [2]; 30 µM in assay [3].

As for `O=C(Nc1c(-c2ccccc2)[nH]c2ccc(Cl)cc12)c1cc2ccccc2oc1=O`, the GI50 amounted to 45 µM in the assay on Hs 683; 27 µM in the assay with B16-F10; 37 µM in the assay on A549 [1]; 55 µM in the assay with SK-MEL-28 [2]; 66 µM in [3].

On to `O=C(COc1ccc(Cl)cc1)Nc1c(-c2ccccc2)[nH]c2ccccc12`, for which the 50% growth inhibitory concentration (GI50) with Hs 683 was determined as 38 µM; with B16-F10 it was 32 µM; with A549 [1] it was 37 µM; with SK-MEL-28 [2] it was 48 µM; in assay [3], 66 µM.

Regarding `O=C(CSCc1ccccc1)Nc1c(-c2ccccc2)[nH]c2ccccc12`, the 50% growth inhibitory concentration (GI50) with Hs 683 stood at 33 µM; with B16-F10, 35 µM; with A549 [1] it was 30 µM; with SK-MEL-28 [2] it was 30 µM; in [3] it was 47 µM.

On to `Fc1ccc2[nH]c(-c3ccc(Cl)cc3)c(Oc3ccc(Cl)cc3)c2c1`, for which the GI50 with Hs 683 came to 22 µM; in the assay on B16-F10, 14 µM; in the assay with A549 [1], 22 µM; in the assay with SK-MEL-28 [2], 24 µM; in assay [3] it was 20 µM.
